From PubChem BioAssay (NCI)
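The concentration for 50% growth inhibition is given as GI50. At the TGI there is no net growth.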

Assays:
Assay in all cases: growth of human tumour cells (NCI), 384-well format
NCI-H460 NSCLC = test system: NCI-H460 NSCLC
SK-MEL-28 melanoma = test system: SK-MEL-28 melanoma
TK-10 renal = test system: TK-10 renal
NCI/ADR-RES ovarian = test system: NCI/ADR-RES ovarian
MOLT-4 leukemia = test system: MOLT-4 leukemia
NCI-H522 lung = test system: NCI-H522 lung
HS 578T breast = test system: HS 578T breast
M14 melanoma = test system: M14 melanoma
HOP-62 NSCLC = test system: HOP-62 NSCLC
EKVX NSCLC = test system: EKVX NSCLC
CCRF-CEM leukemia = test system: CCRF-CEM leukemia
SNB-75 CNS = test system: SNB-75 CNS
RPMI-8226 leukemia = test system: RPMI-8226 leukemia
MCF7 breast = test system: MCF7 breast
A549 NSCLC = test system: A549 NSCLC
HCT-116 colon = test system: HCT-116 colon
SR leukemia = test system: SR leukemia
K-562 leukemia = test system: K-562 leukemia
IGROV1 ovarian = test system: IGROV1 ovarian
DU-145 prostate = test system: DU-145 prostate
SF-539 CNS = test system: SF-539 CNS
MDA-MB-435 melanoma = test system: MDA-MB-435 melanoma
U251 glioblastoma = test system: U251 glioblastoma
HCT-15 colon = test system: HCT-15 colon
UACC-257 melanoma = test system: UACC-257 melanoma
HL-60(TB) leukemia = test system: HL-60(TB) leukemia
MDA-MB-468 breast = test system: MDA-MB-468 breast
UACC-62 melanoma = test system: UACC-62 melanoma
BT-549 breast = test system: BT-549 breast

O=C(NOCCO)c1ccc2cncn2c1Nc1ccc(I)cc1F
GI50 (NCI-H460 NSCLC): < 0.01 µM | TGI (NCI-H460 NSCLC): 22.1 µM | GI50 (SK-MEL-28 melanoma): < 0.01 µM | TGI (SK-MEL-28 melanoma): < 0.01 µM | GI50 (TK-10 renal): 0.0704 µM | TGI (TK-10 renal): 27.4 µM | GI50 (NCI/ADR-RES ovarian): 23.1 µM | TGI (NCI/ADR-RES ovarian): > 100 µM | GI50 (MOLT-4 leukemia): 14.8 µM | TGI (MOLT-4 leukemia): 31.7 µM | GI50 (NCI-H522 lung): 11.8 µM | TGI (NCI-H522 lung): 26.4 µM | GI50 (HS 578T breast): 1.22 µM | TGI (HS 578T breast): 7.01 µM | GI50 (M14 melanoma): < 0.01 µM | TGI (M14 melanoma): < 0.01 µM | GI50 (HOP-62 NSCLC): 0.0128 µM | TGI (HOP-62 NSCLC): 15.3 µM | GI50 (EKVX NSCLC): 0.153 µM | TGI (EKVX NSCLC): 17.8 µM | GI50 (CCRF-CEM leukemia): 13.3 µM | TGI (CCRF-CEM leukemia): 27 µM | GI50 (SNB-75 CNS): 0.34 µM | TGI (SNB-75 CNS): 15.7 µM | GI50 (RPMI-8226 leukemia): 2.16 µM | TGI (RPMI-8226 leukemia): 20.9 µM | GI50 (MCF7 breast): 11.5 µM | TGI (MCF7 breast): 47.2 µM | GI50 (A549 NSCLC): 0.026 µM | TGI (A549 NSCLC): 11.1 µM | GI50 (HCT-116 colon): < 0.01 µM | TGI (HCT-116 colon): 0.191 µM | GI50 (SR leukemia): 0.087 µM | TGI (SR leukemia): 2.39 µM | GI50 (K-562 leukemia): 0.0267 µM | TGI (K-562 leukemia): 14.7 µM | GI50 (IGROV1 ovarian): < 0.01 µM | TGI (IGROV1 ovarian): 12.6 µM | GI50 (DU-145 prostate): 2.14 µM | TGI (DU-145 prostate): 22.4 µM | GI50 (SF-539 CNS): 0.288 µM | TGI (SF-539 CNS): 11.7 µM | GI50 (MDA-MB-435 melanoma): < 0.01 µM | TGI (MDA-MB-435 melanoma): 21.1 µM | GI50 (U251 glioblastoma): 0.0466 µM | TGI (U251 glioblastoma): 10.6 µM | GI50 (HCT-15 colon): 0.301 µM | TGI (HCT-15 colon): > 100 µM | GI50 (UACC-257 melanoma): < 0.01 µM | TGI (UACC-257 melanoma): < 0.01 µM | GI50 (HL-60(TB) leukemia): < 0.01 µM | TGI (HL-60(TB) leukemia): < 0.01 µM | GI50 (MDA-MB-468 breast): 6.92 µM | TGI (MDA-MB-468 breast): 21.5 µM | GI50 (UACC-62 melanoma): < 0.01 µM | TGI (UACC-62 melanoma): 0.0159 µM | GI50 (BT-549 breast): 10 µM | TGI (BT-549 breast): 25.4 µM
